The structures appear in SMILES notation.

For the assay, the target named is T1, human NEP (Homo sapiens, UniProt P08473).
T1 construct: purchased R&D Systems, Minneapolis, Minn; 1182-ZN
T1 sequence (P08473 whole entry): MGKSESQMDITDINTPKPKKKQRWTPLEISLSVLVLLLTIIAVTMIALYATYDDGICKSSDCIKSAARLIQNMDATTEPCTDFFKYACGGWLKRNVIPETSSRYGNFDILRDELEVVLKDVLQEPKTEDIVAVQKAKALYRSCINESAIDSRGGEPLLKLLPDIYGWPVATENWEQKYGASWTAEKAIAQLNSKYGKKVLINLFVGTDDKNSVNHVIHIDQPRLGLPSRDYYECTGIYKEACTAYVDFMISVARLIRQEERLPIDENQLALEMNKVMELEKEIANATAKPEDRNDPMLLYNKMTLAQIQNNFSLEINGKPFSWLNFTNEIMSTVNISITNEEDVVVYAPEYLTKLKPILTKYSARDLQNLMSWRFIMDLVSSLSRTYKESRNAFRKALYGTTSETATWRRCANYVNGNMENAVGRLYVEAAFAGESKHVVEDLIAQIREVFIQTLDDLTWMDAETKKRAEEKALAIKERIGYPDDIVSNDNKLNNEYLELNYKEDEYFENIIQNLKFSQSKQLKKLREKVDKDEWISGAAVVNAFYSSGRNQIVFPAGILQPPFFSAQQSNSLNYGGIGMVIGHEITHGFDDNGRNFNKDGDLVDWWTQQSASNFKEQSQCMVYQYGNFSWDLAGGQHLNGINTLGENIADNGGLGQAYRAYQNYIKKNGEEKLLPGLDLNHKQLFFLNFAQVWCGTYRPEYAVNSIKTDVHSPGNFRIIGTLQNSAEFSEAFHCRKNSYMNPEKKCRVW
Briefly: In vitro enzyme inhibition assay, inhibitor potency at human NEP. The assay is classed as biochemical. Particulars: pKi values at human NEP; recombinant human NEP, fluorogenic peptide substrate 10 μM, 37° C. The procedure: The inhibitory activities of compounds at human and rat neprilysin (EC 3.4.24.11; NEP) and human angiotensin converting enzyme (ACE) were determined using in vitro assays as described below.
Recombinant human NEP and recombinant human ACE were obtained commercially (R&D Systems, Minneapolis, Minn., catalog numbers 1182-ZN and 929-ZN, respectively). The fluorogenic peptide substrate Mca-D-Arg-Arg-Leu-Dap-(Dnp)-OH (Medeiros et al. (1997) Braz. J. Med. Biol. Res. 30:1157-62; Anaspec, San Jose, Calif.) and Abz-Phe-Arg-Lys(Dnp)-Pro-OH (Araujo et al. (2000) Biochemistry 39:8519-8525; Bachem, Torrance, Calif.) were used in the NEP and ACE assays respectively.
The assays were performed in 384-well white opaque plates at 37° C. using the fluorogenic peptide substrates at a concentration of 10 μM in Assay Buffer (NEP: 50 mM HEPES, pH 7.5, 100 mM NaCl, 0.01% polyethylene glycol sorbitan monolaurate (Tween-20), 10 μM ZnSO4; ACE: 50 mM HEPES, pH 7.5, 100 mM NaCl, 0.01% Tween-20, 1 μM ZnSO4).
Test compounds were assayed over the range of concentrations from […] to 20 μM. Test compounds were added to the enzymes and incubated for 30 minute at 37° C. prior to initiating the reaction by the addition of substrate. Reactions were terminated after 20 minutes of incubation at 37° C. by the addition of glacial acetic acid to a final concentration of 3.6% (v/v).
Plates were read on a fluorometer with excitation and emission wavelengths set to 320 nm and 405 nm, respectively. Inhibition constants were obtained by nonlinear regression of the data using the equation (GraphPad Software, Inc., San Diego, Calif.): v=v0/[1+(I/K′)] where v is the reaction rate, v0 is the uninhibited reaction rate, I is the inhibitor concentration and K′ is the apparent inhibition constant.
Compounds of the invention were tested in this assay and found to have pKi values at human NEP as follows.
Regarding `Cc1cc(-c2ccccc2C(=O)O)cc(C(=O)N[C@H](Cc2ccccc2Cl)[C@@H](O)C(=O)O)n1` [Example 2-1, 2-{2-[(1R,2R)-2-Carboxy-1-(2-chloro-benzyl)-2-hydroxy-ethylcarbamoyl]-6-methyl-pyridin-4-yl}-benzoic acid], the Ki is not above 1 nM. For `O=C(N[C@H](Cc1ccccc1Cl)[C@@H](O)C(=O)O)c1ccnc(-c2ccccc2C(=O)O)c1` [Example 2-2, 2-{4-[(1R,2R)-2-Carboxy-1-(2-chloro-benzyl)-2-hydroxy-ethylcarbamoyl]-pyridin-2-yl}-benzoic acid] the value was not above 1 nM; for `Cc1cc(C(=O)N[C@H](Cc2ccccc2Cl)[C@@H](O)C(=O)O)cc(-c2ccccc2C(=O)O)n1` [Example 2-4, 2-{4-[(1R,2R)-2-Carboxy-1-(2-chloro-benzyl)-2-hydroxy-ethylcarbamoyl]-6-methyl-pyridin-2-yl}-benzoic acid], 1.26 to 10 nM; for `O=C(N[C@H](Cc1ccccc1Cl)[C@@H](O)C(=O)O)c1cncc(-c2ccccc2C(=O)O)c1` [Example 2-5, 2-{5-[(1R,2R)-2-Carboxy-1-(2-chloro-benzyl)-2-hydroxy-ethylcarbamoyl]-pyridin-3-yl}-benzoic acid], 1.26 to 10 nM. For `O=C(N[C@H](Cc1ccccc1Cl)[C@@H](O)C(=O)O)c1cnc(O)c(-c2ccccc2C(=O)O)c1` [Example 2-7, 2-{5-[(1R,2R)-2-Carboxy-1-(2-chloro-benzyl)-2-hydroxy-ethylcarbamoyl]-2-hydroxy-pyridin-3-yl}-benzoic acid] the value was not above 1 nM; for `O=C(N[C@H](Cc1ccccc1Cl)[C@@H](O)C(=O)O)c1ccc(-c2ccccc2C(=O)O)nc1` [Example 2-8, 2-{5-[(1R,2R)-2-Carboxy-1-(2-chloro-benzyl)-2-hydroxy-ethylcarbamoyl]-pyridin-2-yl}-benzoic acid], 1.26 to 10 nM. For `O=C(N[C@H](Cc1ccccc1Cl)[C@@H](O)C(=O)O)c1cnc(-c2ccccc2C(=O)O)c(Cl)c1` [Example 2-9, 2-{5-[(1R,2R)-2-Carboxy-1-(2-chloro-benzyl)-2-hydroxy-ethylcarbamoyl]-3-chloro-pyridin-2-yl}-benzoic acid] the value was 1.26 to 10 nM; for `O=C(N[C@H](Cc1ccccc1Cl)[C@@H](O)C(=O)O)c1cnc(-c2ccccc2C(=O)O)c(F)c1` [Example 2-10, 2-{5-[(1R,2R)-2-Carboxy-1-(2-chloro-benzyl)-2-hydroxy-ethylcarbamoyl]-3-fluoro-pyridin-2-yl}-benzoic acid], 1.26 to 10 nM. `O=C(N[C@H](Cc1ccccc1Cl)[C@@H](O)C(=O)O)c1cc(O)no1` [Example 2-11, (2R,3R)-4-(2-Chloro-phenyl)-2-hydroxy-3-[(3-hydroxy-isoxazole-5-carbonyl)-amino]-butyric acid]: the Ki was 1.26 to 10 nM. For `O=C(N[C@H](Cc1ccccc1Cl)[C@@H](O)C(=O)O)c1cc(-c2ccccc2Cl)no1` [Example 2-12, (2R,3R)-4-(2-Chloro-phenyl)-3-{[3-(2-chloro-phenyl)-isoxazole-5-carbonyl]-amino}-2-hydroxy-butyric acid] the value was 1.26 to 10 nM; for `O=C(N[C@H](Cc1ccccc1Cl)[C@@H](O)C(=O)O)c1cc(-c2cccc(Cl)c2)no1` [Example 2-13, (2R,3R)-4-(2-Chloro-phenyl)-3-{[3-(3-chloro-phenyl)-isoxazole-5-carbonyl]-amino}-2-hydroxy-butyric acid], 1.26 to 10 nM; for `O=C(N[C@H](Cc1ccccc1Cl)[C@@H](O)C(=O)O)c1cc(-c2ccc(Cl)cc2)no1` [Example 2-14, (2R,3R)-4-(2-Chloro-phenyl)-3-{[3-(4-chloro-phenyl)-isoxazole-5-carbonyl]-amino}-2-hydroxy-butyric acid], 1.26 to 10 nM. The result for `O=C(N[C@H](Cc1ccccc1Cl)[C@@H](O)C(=O)O)c1cc(-c2ccccc2Cl)on1` [Example 2-15, (2R,3R)-4-(2-Chloro-phenyl)-3-{[5-(2-chloro-phenyl)-isoxazole-3-carbonyl]-amino}-2-hydroxy-butyric acid] reads 1.26 to 10 nM; that for `O=C(N[C@H](Cc1ccccc1Cl)[C@@H](O)C(=O)O)c1cc(=O)n(Cc2ccc(Cl)cc2F)o1` [Example 2-16, (2R,3R)-3-{[2-(4-Chloro-2-fluoro-benzyl)-3-oxo-2,3-dihydro-isoxazole-5-carbonyl]-amino}-4-(2-chloro-phenyl)-2-hydroxy-butyric acid], 1.26 to 10 nM. In the case of `COc1ccc(Cn2oc(C(=O)N[C@H](Cc3ccccc3Cl)[C@@H](O)C(=O)O)cc2=O)c(F)c1F` [Example 2-17, (2R,3R)-4-(2-Chloro-phenyl)-3-{[2-(2,3-difluoro-4-methoxy-benzyl)-3-oxo-2,3-dihydro-isoxazole-5-carbonyl]-amino}-2-hydroxy-butyric acid], the Ki is 1.26 to 10 nM. The result for `O=C(N[C@H](Cc1ccccc1Cl)[C@@H](O)C(=O)O)c1cnc(-c2ccccc2)o1` [Example 2-18, (2R,3R)-4-(2-Chloro-phenyl)-2-hydroxy-3-[(2-phenyl-oxazole-5-carbonyl)-amino]-butyric acid] reads 12.6 to 100 nM; that for `O=C(N[C@H](Cc1ccccc1Cl)[C@H](O)C(=O)O)c1cnn[nH]1` [Example 2-19, (2S,3R)-4-(2-Chloro-phenyl)-2-hydroxy-3-[(3H-[1,2,3]triazole-4-carbonyl)-amino]-butyric acid], 12.6 to 100 nM; that for `O=C(N[C@H](Cc1ccccc1Cl)[C@@H](O)C(=O)O)c1cn(Cc2ccccc2)nn1` [Example 2-20, (2R,3R)-3-[(1-Benzyl-1H-[1,2,3]triazole-4-carbonyl)-amino]-4-(2-chloro-phenyl)-2-hydroxy-butyric acid], 12.6 to 100 nM.

Consider `O=C(N[C@H](Cc1ccccc1Cl)[C@@H](O)C(=O)O)c1cn(O)nn1` [Example 2-21, (2R,3R)-4-(2-Chloro-phenyl)-2-hydroxy-3-[(1-hydroxy-1H-[1,2,3]triazole-4-carbonyl)-amino]-butyric acid], for which the inhibitory constant (Ki) is 12.6 to 100 nM. As to `Cc1nc(C(=O)N[C@H](Cc2ccccc2Cl)[C@@H](O)C(=O)O)nn1-c1ccc(Cl)cc1` [Example 2-22, (2R,3R)-4-(2-Chloro-phenyl)-3-{[1-(4-chloro-phenyl)-5-methyl-1H-[1,2,4]triazole-3-carbonyl]-amino}-2-hydroxy-butyric acid], the inhibitory constant (Ki) was 12.6 to 100 nM. For the compound `O=C(N[C@H](Cc1ccccc1Cl)[C@@H](O)C(=O)O)c1nn(Cc2ccc(Cl)cc2F)c(=O)[nH]1` [Example 2-23, (2R,3R)-3-{[1-(4-Chloro-2-fluoro-benzyl)-5-oxo-4,5-dihydro-1H-[1,2,4]triazole-3-carbonyl]-amino}-4-(2-chloro-phenyl)-2-hydroxy-butyric acid], the Ki is 12.6 to 100 nM. For `O=C(N[C@H](Cc1ccccc1Cl)[C@@H](O)C(=O)O)c1cc2n(n1)COc1ccccc1-2` [Example 2-24, (2R,3R)-4-(2-Chloro-phenyl)-2-hydroxy-3-[(5-oxa-3,3a-diazacyclopenta[a]naphthalene-2-carbonyl)-amino]-butyric acid] the value was 1.26 to 10 nM. For `O=C(N[C@H](Cc1ccccc1Cl)[C@@H](O)C(=O)O)c1cc2n(n1)CCOc1ccccc1-2` [Example 2-26, (2R,3R)-4-(2-Chloro-phenyl)-3-[(4,5-dihydro-6-oxa-3,3a-diaza-benzo[e]azulene-2-carbonyl)-amino]-2-hydroxy-butyric acid] the value was 1.26 to 10 nM. For `O=C(N[C@H](Cc1ccccc1Cl)[C@H](O)C(=O)O)c1cc(F)c2nn[nH]c2c1` [Example 2-27, (2S,3R)-4-(2-Chloro-phenyl)-3-[(7-fluoro-3H-benzotriazole-5-carbonyl)-amino]-2-hydroxy-butyric acid] the value was 1.26 to 10 nM; for `O=C(N[C@H](Cc1ccccc1Cl)[C@H](O)C(=O)O)c1cc(Cl)c2nn[nH]c2c1` [Example 2-28, (2S,3R)-3-[(7-Chloro-3H-benzotriazole-5-carbonyl)-amino]-4-(2-chloro-phenyl)-2-hydroxy-butyric acid], 1.26 to 10 nM; for `O=C(N[C@H](Cc1ccccc1Cl)[C@H](O)C(=O)O)c1ccc2nn[nH]c2c1` [Example 2-29, (2S,3R)-3-[(3H-Benzotriazole-5-carbonyl)-amino]-4-(2-chloro-phenyl)-2-hydroxy-butyric acid], 12.6 to 100 nM. With `Cc1cc(C(=O)N[C@H](Cc2ccccc2Cl)[C@H](O)C(=O)O)cc2[nH]nnc12` [Example 2-30, (2S,3R)-4-(2-Chloro-phenyl)-2-hydroxy-3-[(7-methyl-3H-benzotriazole-5-carbonyl)-amino]-butyric acid], the Ki was 12.6 to 100 nM. The result for `O=C(N[C@H](Cc1ccccc1Cl)[C@@H](O)C(=O)O)c1cc(C(=O)O)c2[nH]nnc2c1` [Example 2-31, 6-[(1R,2R)-2-Carboxy-1-(2-chloro-benzyl)-2-hydroxy-ethylcarbamoyl]-3H-benzotriazole-4-carboxylic acid] reads 12.6 to 100 nM.

What is called Ki is the dissociation constant of the complex between target and ligand, obtained from inhibition or displacement.

Values taken from patent US9771337B2, “Neprilysin inhibitors” (THERAVANCE BIOPHARMA R&D IP, LLC, priority 2011, dated 2017).
